This note sets out measurements from US9023789B2, “Amylin analogs and pharmaceutical compositions thereof” (Novo Nordisk A/S, priority 2012, dated 2015).

In test [1] the target is T1, human amylin receptor (membranes from Amylin 3(a)/CRE-luc cells) (Homo sapiens, UniProt O60896+P30988).
T1 construct: expressed in transfected cells
T1 sequence (P30988 25-474): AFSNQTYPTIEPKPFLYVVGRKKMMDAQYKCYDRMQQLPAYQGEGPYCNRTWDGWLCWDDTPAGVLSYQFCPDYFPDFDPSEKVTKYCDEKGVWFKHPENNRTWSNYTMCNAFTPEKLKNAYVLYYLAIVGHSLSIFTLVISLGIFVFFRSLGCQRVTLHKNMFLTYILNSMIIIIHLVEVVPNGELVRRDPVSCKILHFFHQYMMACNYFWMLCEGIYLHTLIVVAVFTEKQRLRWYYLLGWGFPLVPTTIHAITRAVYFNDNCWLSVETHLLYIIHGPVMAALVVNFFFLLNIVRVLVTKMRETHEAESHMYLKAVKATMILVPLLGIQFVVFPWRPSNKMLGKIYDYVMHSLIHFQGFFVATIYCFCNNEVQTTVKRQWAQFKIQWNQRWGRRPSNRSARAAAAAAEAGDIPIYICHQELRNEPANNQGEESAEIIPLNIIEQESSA
T1 sequence (O60896 24-148 partner): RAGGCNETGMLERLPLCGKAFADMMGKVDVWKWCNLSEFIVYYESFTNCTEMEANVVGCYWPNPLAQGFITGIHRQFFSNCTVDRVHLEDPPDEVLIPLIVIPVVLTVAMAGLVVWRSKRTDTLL
The test can be described thus: ASSAY (V) binding to the human amylin receptor (SPA, 125I-rat amylin).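 Note: competition binding of cell membranes (35 ng/µL) mixed with SPA beads in 384-well plates at 40 µL total volume, read by scintillation counting.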

The next test addresses T2, rat calcitonin receptor (Rattus norvegicus, UniProt P32214).
T2 construct: expressed in transfected cells; host or cells: BHK tk'ts 13 (transient, FuGENE 6), membranes
T2 sequence (P32214 25-479 isoform P32214-2 limits assumed): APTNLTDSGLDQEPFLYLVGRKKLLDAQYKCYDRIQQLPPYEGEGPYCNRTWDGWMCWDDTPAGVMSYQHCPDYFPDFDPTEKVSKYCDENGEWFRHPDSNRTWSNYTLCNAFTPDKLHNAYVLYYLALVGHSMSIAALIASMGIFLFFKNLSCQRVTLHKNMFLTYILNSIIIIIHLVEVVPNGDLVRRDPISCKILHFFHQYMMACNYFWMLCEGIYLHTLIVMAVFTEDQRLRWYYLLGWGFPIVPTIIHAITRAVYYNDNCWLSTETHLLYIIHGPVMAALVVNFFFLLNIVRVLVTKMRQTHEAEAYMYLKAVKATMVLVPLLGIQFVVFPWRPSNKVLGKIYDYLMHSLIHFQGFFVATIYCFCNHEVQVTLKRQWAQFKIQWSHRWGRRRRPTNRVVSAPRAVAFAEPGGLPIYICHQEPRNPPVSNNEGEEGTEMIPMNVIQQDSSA
Nature of the test: ASSAY (VIII) binding to the rat calcitonin receptor. The note with it: Table 7, read-out: rCTR bind IC50. In outline: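 Transfect BHK tk′ts 13 cells transiently with rat calcitonin receptor, culture in DMEM containing 10% FBS, collect cells about 48 hours later, then prepare membranes.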

Test [2] addresses T3, human amylin 3(a) receptor (human calcitonin receptor + RAMP-3) in BHK570 cells (Homo sapiens, UniProt O60896+P30988).
T3 construct: expressed in transfected cells
The test can be described thus: ASSAY (II)a functional assay, human amylin receptor (CRE luciferase). Format: cell-based. In outline: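 BHK cells stably carrying a CRE-luciferase reporter plus calcitonin receptor, or calcitonin receptor with RAMP-3 for the amylin 3(a) receptor, were seeded and kept overnight at 37° C. Compounds were added in assay medium with 10% FBS and 10 mM Hepes, pH 7.4, for 3 hours at 37° C, then luminescence was counted.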

[3] abbreviates: Table 5, selectivity, hCTR bind IC50 / hAmylin-R bind IC50.
The mark [4] stands for this setting: Table 5a, selectivity, hCTR bind IC50 / hAmylin-R bind IC50.
The mark [5] stands for this setting: Table 5b, selectivity, hCTR bind IC50 / hAmylin-R bind IC50.
Where [6] appears, read: Table 5c, selectivity, hCTR bind IC50 / hAmylin-R bind IC50.
The mark [7] stands for this setting: Table 7, human binding selectivity, included for comparison.
[8] abbreviates: Table 7a (preferred compounds), human binding selectivity, included for comparison.
The mark [9] stands for this setting: ratio of human calcitonin receptor binding IC50 to human amylin receptor binding IC50.
Setting [10] is: hCTR funct. EC50 divided by hAmylin-R funct. EC50.
Where [11] appears, read: hCTR funct. EC50 over hAmylin-R funct. EC50.
[12] abbreviates: human functional selectivity: hCTR funct. EC50 / hAmylin-R funct. EC50.

Take `CC[C@H](C)[C@H](NC(=O)[C@H](C)NC(=O)CNC(=O)[C@H](Cc1ccccc1)NC(=O)[C@H](CC(N)=O)NC(=O)[C@@H]1CCCN1C(=O)[C@H](CO)NC(=O)[C@H](CO)NC(=O)[C@H](Cc1c[nH]cn1)NC(=O)[C@H](CCCNC(=N)N)NC(=O)[C@H](CC(C)C)NC(=O)[C@H](Cc1ccccc1)NC(=O)[C@H](CC(N)=O)NC(=O)[C@H](C)NC(=O)[C@H](CC(C)C)NC(=O)[C@H](CCCNC(=N)N)NC(=O)[C@H](CCC(N)=O)NC(=O)[C@@H](NC(=O)[C@H](C)NC(=O)[C@@H]1CSSC[C@H](NC(=O)[C@@H](N)CCCCNC(=O)CC[C@H](NC(=O)CCCCCCCCCCCCCCCCCCC(=O)O)C(=O)O)C(=O)N[C@@H](CC(N)=O)C(=O)N[C@@H]([C@@H](C)O)C(=O)N[C@@H](C)C(=O)N[C@@H]([C@@H](C)O)C(=O)N1)[C@@H](C)O)C(=O)N1CCC[C@H]1C(=O)N[C@@H](CO)C(=O)N[C@@H](CO)C(=O)N[C@H](C(=O)N[C@@H](CC(N)=O)C(=O)N[C@H](C(=O)NCC(=O)N[C@@H](CO)C(=O)N[C@@H](Cc1c[nH]cn1)C(=O)N[C@H](C(=O)N[C@@H](Cc1ccc(O)cc1)C(N)=O)[C@@H](C)O)C(C)C)[C@@H](C)O` [Example 60]: the “Ratio hCT/hAmylin binding” value in test [1] (setting [3]), in test [1] (setting [4]), in test [1] (setting [5]), in test [1] (setting [6]), in test [1] (setting [7]) and in test [1] (setting [8]) was 45.2 each time. For the same compound, the “Ratio hCT/hAmylin binding” value in test [1] (setting [9]) is recorded as 45.2. The IC50 (in general, the point on the concentration scale where inhibition reaches its midpoint) at rat calcitonin receptor was 26.3 nM. Also, the “Ratio hCT/hAmylin funct.” value in test [2] (setting [10]), in test [2] (setting [11]) and in test [2] (setting [12]) was 15.3 in each case.

As to `CC[C@H](C)[C@H](NC(=O)[C@H](C)NC(=O)CNC(=O)[C@H](Cc1ccccc1)NC(=O)[C@H](CC(N)=O)NC(=O)[C@@H]1CCCN1C(=O)[C@H](CO)NC(=O)[C@H](CO)NC(=O)[C@H](Cc1c[nH]cn1)NC(=O)[C@H](CCCNC(=N)N)NC(=O)[C@H](CC(C)C)NC(=O)[C@H](Cc1ccccc1)NC(=O)[C@H](CC(N)=O)NC(=O)[C@H](C)NC(=O)[C@H](CC(C)C)NC(=O)[C@H](CCCNC(=N)N)NC(=O)[C@H](CCC(N)=O)NC(=O)[C@@H](NC(=O)[C@H](C)NC(=O)[C@@H]1CSSC[C@H](NC(=O)[C@H](CCCCN)NC(=O)CC[C@H](NC(=O)CCCCCCCCCCCCCCCCCCC(=O)O)C(=O)O)C(=O)N[C@@H](CC(N)=O)C(=O)N[C@@H]([C@@H](C)O)C(=O)N[C@@H](C)C(=O)N[C@@H]([C@@H](C)O)C(=O)N1)[C@@H](C)O)C(=O)N1CCC[C@H]1C(=O)N[C@@H](CO)C(=O)N[C@@H](CO)C(=O)N[C@H](C(=O)N[C@@H](CC(N)=O)C(=O)N[C@H](C(=O)NCC(=O)N[C@@H](CO)C(=O)N[C@@H](CCCCN)C(=O)N[C@H](C(=O)N[C@@H](Cc1ccc(O)cc1)C(N)=O)[C@@H](C)O)C(C)C)[C@@H](C)O` [Example 34], the “Ratio hCT/hAmylin binding” value in test [1] (setting [3]), in test [1] (setting [4]), in test [1] (setting [5]), in test [1] (setting [6]), in test [1] (setting [7]) and in test [1] (setting [8]) was 64.4 throughout. Further, in test [1] (setting [9]), the “Ratio hCT/hAmylin binding” value is 64.4. In addition, the concentration for half-maximal inhibition (IC50) on rat calcitonin receptor was 89.2 nM. Further, the “Ratio hCT/hAmylin funct.” value in test [2] (setting [10]) and in test [2] (setting [12]) was 8.4 each time.

As to `CC[C@H](C)[C@H](NC(=O)[C@H](C)NC(=O)CNC(=O)[C@H](Cc1ccccc1)NC(=O)[C@H](CC(N)=O)NC(=O)[C@@H]1CCCN1C(=O)[C@H](CO)NC(=O)[C@H](CO)NC(=O)[C@H](Cc1c[nH]cn1)NC(=O)[C@H](CCCNC(=N)N)NC(=O)[C@H](CC(C)C)NC(=O)[C@H](Cc1ccccc1)NC(=O)[C@H](CC(N)=O)NC(=O)[C@H](C)NC(=O)[C@H](CC(C)C)NC(=O)[C@H](CCCNC(=N)N)NC(=O)[C@H](CCC(N)=O)NC(=O)[C@@H](NC(=O)[C@H](C)NC(=O)[C@@H]1CSSC[C@H](NC(=O)[C@H](CCCCN)NC(=O)CC[C@H](NC(=O)CCCCCCCCCCCCCCCCCCC(=O)O)C(=O)O)C(=O)N[C@@H](CC(N)=O)C(=O)N[C@@H]([C@@H](C)O)C(=O)N[C@@H](C)C(=O)N[C@@H]([C@@H](C)O)C(=O)N1)[C@@H](C)O)C(=O)N1CCC[C@H]1C(=O)N[C@@H](CO)C(=O)N[C@@H](CO)C(=O)N[C@H](C(=O)N[C@@H](CC(N)=O)C(=O)N[C@H](C(=O)NCC(=O)N[C@@H](Cc1c[nH]cn1)C(=O)N[C@@H](CC(N)=O)C(=O)N[C@H](C(=O)N[C@@H](Cc1ccc(O)cc1)C(N)=O)[C@@H](C)O)C(C)C)[C@@H](C)O` [Example 40], the “Ratio hCT/hAmylin binding” value in test [1] (setting [3]), in test [1] (setting [4]), in test [1] (setting [5]), in test [1] (setting [6]), in test [1] (setting [7]) and in test [1] (setting [8]) was 31.1 throughout. Besides, the “Ratio hCT/hAmylin binding” value in test [1] (setting [9]) is on record as 31.1. Moreover, the IC50 on rat calcitonin receptor came out at 69.2 nM. Also, the “Ratio hCT/hAmylin funct.” value in test [2] (setting [10]), in test [2] (setting [11]) and in test [2] (setting [12]) was 16.4 each time.

Consider `CC[C@H](C)[C@H](NC(=O)[C@H](C)NC(=O)CNC(=O)[C@H](Cc1ccccc1)NC(=O)[C@H](CC(N)=O)NC(=O)[C@@H]1CCCN1C(=O)[C@H](CO)NC(=O)[C@H](CO)NC(=O)[C@H](Cc1c[nH]cn1)NC(=O)[C@H](CCCNC(=N)N)NC(=O)[C@H](CC(C)C)NC(=O)[C@H](Cc1ccccc1)NC(=O)[C@H](CC(=O)O)NC(=O)[C@H](C)NC(=O)[C@H](CC(C)C)NC(=O)[C@H](CCCNC(=N)N)NC(=O)[C@H](CCC(N)=O)NC(=O)[C@@H](NC(=O)[C@H](C)NC(=O)[C@@H]1CSSC[C@H](NC(=O)[C@@H](N)CCCCNC(=O)CC[C@H](NC(=O)CC[C@H](NC(=O)CCCCCCCCCCCCCCCCCCC(=O)O)C(=O)O)C(=O)O)C(=O)N[C@@H](CC(N)=O)C(=O)N[C@@H]([C@@H](C)O)C(=O)N[C@@H](C)C(=O)N[C@@H]([C@@H](C)O)C(=O)N1)[C@@H](C)O)C(=O)N1CCC[C@H]1C(=O)N[C@@H](CO)C(=O)N[C@@H](CO)C(=O)N[C@H](C(=O)N[C@@H](CC(N)=O)C(=O)N[C@H](C(=O)NCC(=O)N[C@@H](CO)C(=O)N[C@@H](CCCNC(=N)N)C(=O)N[C@H](C(=O)N[C@@H](Cc1ccc(O)cc1)C(N)=O)[C@@H](C)O)C(C)C)[C@@H](C)O` [Example 52, N-ε-1-{(S)-4-carboxy-4-[(S)-4-carboxy-4-(19-carboxynonadecanoylamino)butyrylamino]butyryl}-[Asp14,Arg17,Pro21,Pro27,Arg35]-human amylin], for which the “Ratio hCT/hAmylin binding” value in test [1] (setting [3]), in test [1] (setting [4]), in test [1] (setting [5]), in test [1] (setting [6]), in test [1] (setting [7]) and in test [1] (setting [8]) was 81.6 each time. Further, the “Ratio hCT/hAmylin binding” value in test [1] (setting [9]) is reported as 81.6. In addition, on rat calcitonin receptor, the IC50 is 159 nM. Further, the “Ratio hCT/hAmylin funct.” value in test [2] (setting [10]), in test [2] (setting [11]) and in test [2] (setting [12]) was 41.4 each time.
